Test: mn = molality of the nth substance listed, in mol/kg
Conditions: 101.3 kPa, Liquid; for viscosity: Capillary tube (Ostwald / Ubbelohde) method; for mass density: Vibrating tube method

OC[C@@H](O)[C@H](O)[C@@H](O)CO [xylitol] + O
Conditions | mass density, m1 = 0.2 [kg/m3] | mass density, m1 = 0.4 [kg/m3] | mass density, m1 = 0.6 [kg/m3] | mass density, m1 = 0.8 [kg/m3] | mass density, m1 = 1 [kg/m3] | viscosity, m1 = 0.2 [mPa·s] | viscosity, m1 = 0.4 [mPa·s] | viscosity, m1 = 0.6 [mPa·s] | viscosity, m1 = 0.8 [mPa·s] | viscosity, m1 = 1 [mPa·s]
293.15 K | 1008.15 | 1017.64 | 1026.71 | 1035.41 | 1043.78 | 1.079 | 1.161 | 1.25 | 1.348 | 1.443
303.15 K | 1005.42 | 1014.74 | 1023.67 | 1032.22 | 1040.41 | 0.855 | 0.916 | 0.981 | 1.059 | 1.128
313.15 K | 1001.85 | 1011.07 | 1019.85 | 1028.28 | 1036.38 | 0.697 | 0.744 | 0.794 | 0.851 | 0.904
323.15 K | 997.56 | 1006.6 | 1015.35 | 1023.7 | 1031.65 | 0.582 | 0.617 | 0.657 | 0.701 | 0.741

Source: the NIST ThermoML archive (doi:10.1021/acs.jced.6b00766)
